From patent US20250154197A1, “LIPOLYTIC PEPTIDES” (FUNDACIÓ HOSPITAL UNIVERSITARI VALL D'HEBRON - INSTITUT DE …, priority 2021, published 2025) come the findings set out here.

Where no end group is shown, it is not given here. [ ]: non-standard residue; d: D form. The star is where a group is joined. Palmitoyl = CCCCCCCCCCCCCCCC(=O)*

The test system of the test is human subcutaneoous mature adipocytes. Briefly: Lipolytic activity: glycerol release in human adipocytes (Lipolysis Assay kit). It is filed as cell-based. Conditions: human subcutaneous mature adipocytes.

Turning to “DN-LD-LP-LE-G-LL-LY ([dN]DPEGLY) [GP3DM-13, N-term NH2, C-term COOH]”, the “Lipolysis Activity measured as Glycerol (μM) release in media” value (“Lipolysis Activity measured as Glycerol” for short) reads like this: (50 μg/ml) 49.5 µM; (100 μg/ml) 42.1 µM.
Regarding “Ac-NDLEGLY (Ac-[dN][dD][dL][dE]G[dL][dY]-OH; SMILES CC(=O)N[C@H](CC(N)=O)C(=O)N[C@H](CC(=O)O)C(=O)N[C@H](CC(C)C)C(=O)N[C@H](CCC(=O)O)C(=O)NCC(=O)N[C@H](CC(C)C)C(=O)N[C@H](Cc1ccc(O)cc1)C(=O)O) [GP3DM-25, N-term CH3CONH, C-term COOH]”, the “Lipolysis Activity measured as Glycerol” value (25 μg/ml) came to 134.2 µM, the “Lipolysis Activity measured as Glycerol” value (50 μg/ml) was found to be 104.4 µM and the “Lipolysis Activity measured as Glycerol” value (100 μg/ml) came out at 121.6 µM.
“NDPEGY (H-[dN][dD][dP][dE]G[dY]-OH; SMILES NC(=O)C[C@@H](N)C(=O)N[C@H](CC(=O)O)C(=O)N1CCC[C@@H]1C(=O)N[C@H](CCC(=O)O)C(=O)NCC(=O)N[C@H](Cc1ccc(O)cc1)C(=O)O) [GP3DM-20, N-term NH2, C-term COOH]”: the “Lipolysis Activity measured as Glycerol” value reads like this: (25 μg/ml) 128.1 µM; (50 μg/ml) 117.7 µM; (100 μg/ml) 118.7 µM.
On to “LN-DD-LP-LE-G-LL-LY (N[dD]PEGLY) [GP3DM-14, N-term NH2, C-term COOH]”, for which the “Lipolysis Activity measured as Glycerol” value is, setting by setting: (50 μg/ml) 53.1 µM; (100 μg/ml) 52.8 µM.
As to “NDEGLY [GP3DM-24] (H-[dN][dD][dE]G[dL][dY]-OH; SMILES CC(C)C[C@@H](NC(=O)CNC(=O)[C@@H](CCC(=O)O)NC(=O)[C@@H](CC(=O)O)NC(=O)[C@H](N)CC(N)=O)C(=O)N[C@H](Cc1ccc(O)cc1)C(=O)O) [N-term NH2, C-term COOH]”, the “Lipolysis Activity measured as Glycerol” value reads like this: (25 μg/ml) 105.2 µM; (50 μg/ml) 111.0 µM; (100 μg/ml) 148.6 µM.
In the same order, the values of “Ac-NDPEGLY (Ac-[dN][dD][dP][dE]G[dL][dY]-OH; SMILES CC(=O)N[C@H](CC(N)=O)C(=O)N[C@H](CC(=O)O)C(=O)N1CCC[C@@H]1C(=O)N[C@H](CCC(=O)O)C(=O)NCC(=O)N[C@H](CC(C)C)C(=O)N[C@H](Cc1ccc(O)cc1)C(=O)O) [Acetyl-NH-EDL67, N-term CH3CONH, C-term COOH]” are 66.2 µM, 121.0 µM and 74.2 µM.
As to “WDPEGVF (H-[dW][dD][dP][dE]G[dV][dF]-OH; SMILES CC(C)[C@@H](NC(=O)CNC(=O)[C@@H](CCC(=O)O)NC(=O)[C@H]1CCCN1C(=O)[C@@H](CC(=O)O)NC(=O)[C@H](N)Cc1c[nH]c2ccccc12)C(=O)N[C@H](Cc1ccccc1)C(=O)O) [GP3D-7 I VIII X, N-term NH2, C-term COOH]”, the “Lipolysis Activity measured as Glycerol” value reads like this: (25 μg/ml) 14.57 µM; (50 μg/ml) 36.68 µM; (75 μg/ml) 42.95 µM; (100 μg/ml) 46.85 µM.
Turning to “NDEGLY [GP3DM-22] (H-[dN][dD][dE]G[dL][dY]-OH; SMILES CC(C)C[C@@H](NC(=O)CNC(=O)[C@@H](CCC(=O)O)NC(=O)[C@@H](CC(=O)O)NC(=O)[C@H](N)CC(N)=O)C(=O)N[C@H](Cc1ccc(O)cc1)C(=O)O) [N-term NH2, C-term COOH]”, the “Lipolysis Activity measured as Glycerol” value amounted to 52.1 µM (25 μg/ml), 59.5 µM (50 μg/ml) and 131.9 µM (100 μg/ml).
In the case of “LN-LD-LP-LE-G-LL-DY (NDPEGL[dY]) [GP3DM-18, N-term NH2, C-term COOH]”, the “Lipolysis Activity measured as Glycerol” value (50 μg/ml) is 44.4 µM and the “Lipolysis Activity measured as Glycerol” value (100 μg/ml) amounted to 63.5 µM.
Consider “CH3(CH2)14CONH-NDLEGLY (Palmitoyl-[dN][dD][dL][dE]G[dL][dY]-OH; SMILES CCCCCCCCCCCCCCCC(=O)N[C@H](CC(N)=O)C(=O)N[C@H](CC(=O)O)C(=O)N[C@H](CC(C)C)C(=O)N[C@H](CCC(=O)O)C(=O)NCC(=O)N[C@H](CC(C)C)C(=O)N[C@H](Cc1ccc(O)cc1)C(=O)O) [GP3DM-28, N-term CH3(CH2)14CONH, C-term COOH]”, for which the “Lipolysis Activity measured as Glycerol” value is, setting by setting: (25 μg/ml) 50.5 µM; (50 μg/ml) 122.6 µM; (100 μg/ml) 106.0 µM.
For “Ac-NDLEGLY-NH2 (Ac-[dN][dD][dL][dE]G[dL][dY]-NH2; SMILES CC(=O)N[C@H](CC(N)=O)C(=O)N[C@H](CC(=O)O)C(=O)N[C@H](CC(C)C)C(=O)N[C@H](CCC(=O)O)C(=O)NCC(=O)N[C@H](CC(C)C)C(=O)N[C@H](Cc1ccc(O)cc1)C(N)=O) [GP3DM-29, N-term CH3CONH, C-term CONH2]”, the “Lipolysis Activity measured as Glycerol” value is 123.8 µM (25 μg/ml), 72.4 µM (50 μg/ml) and 131.9 µM (100 μg/ml).
Take “NDEGLFY (H-[dN][dD][dE]G[dL][dF][dY]-OH; SMILES CC(C)C[C@@H](NC(=O)CNC(=O)[C@@H](CCC(=O)O)NC(=O)[C@@H](CC(=O)O)NC(=O)[C@H](N)CC(N)=O)C(=O)N[C@H](Cc1ccccc1)C(=O)N[C@H](Cc1ccc(O)cc1)C(=O)O) [GP3DM-19, N-term NH2, C-term COOH]”: the “Lipolysis Activity measured as Glycerol” value is 87.1 µM (25 μg/ml), 64.0 µM (50 μg/ml) and 123.3 µM (100 μg/ml).
As for “Ac-NDPEGLY-NH2 (Ac-[dN][dD][dP][dE]G[dL][dY]-NH2; SMILES CC(=O)N[C@H](CC(N)=O)C(=O)N[C@H](CC(=O)O)C(=O)N1CCC[C@@H]1C(=O)N[C@H](CCC(=O)O)C(=O)NCC(=O)N[C@H](CC(C)C)C(=O)N[C@H](Cc1ccc(O)cc1)C(N)=O) [GP3DM-27, N-term CH3CONH, C-term CONH2]”, the “Lipolysis Activity measured as Glycerol” value (25 μg/ml) is 72.6 µM, the “Lipolysis Activity measured as Glycerol” value (50 μg/ml) is 133.3 µM and the “Lipolysis Activity measured as Glycerol” value (100 μg/ml) was found to be 142.7 µM.
In the case of “LN-LD-LP-DE-G-LL-LY (NDP[dE]GLY) [GP3DM-16, N-term NH2, C-term COOH]”, the “Lipolysis Activity measured as Glycerol” value came out at 41.5 µM (50 μg/ml) and 44.1 µM (100 μg/ml).
Regarding “Ac-LN-LD-LP-LE-G-LL-LY (Ac-NDPEGLY) [Acetyl-NH-GP3DM-12, N-term CH3CONH, C-term COOH]”, under “100 μg/ml”, the “Lipolysis Activity measured as Glycerol” value was found to be 138.6 µM.
“LN-LD-LP-LE-G-DL-LY (NDPEG[dL]Y) [GP3DM-17, N-term NH2, C-term COOH]”: the “Lipolysis Activity measured as Glycerol” value by setting is: (50 μg/ml) 47.4 µM; (100 μg/ml) 53.6 µM.
For “LN-LD-DP-LE-G-LL-LY (ND[dP]EGLY) [GP3DM-15, N-term NH2, C-term COOH]” the same measures were 42.0 µM and 47.2 µM.
